Measurements taken from patent US9695155B2, “Herbicidal substituted pyrimidinyloxy benzene compounds” (E. I. DU PONT DE NEMOURS AND COMPANY, priority 2013, dated 2017).

Tests used:
barnyardgrass [1] = test: Test A postemergence; format: in vivo, Echinochloa crus-galli; details: for Plant response rating, Barnyardgrass: 0 to 100 scale, 0 no effect, 100 complete control
How it was run: (§1)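 Visual 0–100 rating (100 = complete control) taken about 10 d post-treatment relative to untreated checks. Preemergence: directed soil spray on sown loam/sand pots. Postemergence: seedlings 2–10 cm, 1–2 leaf. Non-phytotoxic solvent formulation with surfactant.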

kochia [2] = test: Test A preemergence; format: in vivo, Kochia scoparia; details: for Plant response rating, Kochia: 0 to 100 scale where 0 is no effect and 100 is complete control
How it was run: as §1

giant foxtail [3] = test: Test A preemergence; format: in vivo, Setaria faberii; details: for Plant response rating, Foxtail, Giant: 0 to 100 scale where 0 is no effect and 100 is complete control
How it was run: as §1

barnyardgrass [4] = test: Test A preemergence; format: in vivo, Echinochloa crus-galli; details: for Plant response rating, Barnyardgrass: 0 to 100 scale where 0 is no effect and 100 is complete control
How it was run: as §1

giant foxtail [5] = test: Test A postemergence; format: in vivo, Setaria faberii; details: for Plant response rating, Foxtail, Giant: 0 to 100 scale, 0 no effect, 100 complete control
How it was run: as §1

ragweed [6] = test: Test A postemergence; format: in vivo, Ambrosia elatior; details: for Plant response rating, Ragweed: 0 to 100 scale, 0 no effect, 100 complete control
How it was run: as §1

pigweed [7] = test: Test A postemergence; format: in vivo, Amaranthus retroflexus; details: for Plant response rating, Pigweed: 0 to 100 scale, 0 no effect, 100 complete control
How it was run: as §1

corn = test: Test A postemergence; format: in vivo, Zea mays; details: for Plant response rating, Corn: 0 to 100 scale, 0 no effect, 100 complete control
How it was run: as §1

Italian ryegrass [8] = test: Test A postemergence; format: in vivo, Lolium multiflorum; details: for Plant response rating, Ryegrass, Italian: 0 to 100 scale, 0 no effect, 100 complete control
How it was run: as §1

wheat = test: Test A postemergence; format: in vivo, Triticum aestivum; details: for Plant response rating, Wheat: 0 to 100 scale, 0 no effect, 100 complete control
How it was run: as §1

blackgrass = test: Test A postemergence; format: in vivo, Alopecurus myosuroides; details: for Plant response rating, Blackgrass: 0 to 100 scale, 0 no effect, 100 complete control
How it was run: as §1

rice = test: Test B flooded paddy test; format: in vivo, Oryza sativa; details: Flood, 250 g ai/ha; 0 to 100 scale where 0 is no effect and 100 is complete control
How it was run: (§2)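 Flooded to 3 cm at the 2-leaf stage, pots received compound through the paddy water and were kept at that depth under greenhouse conditions. After 13–15 days, effect was rated by eye relative to controls, 0 = none and 100 = complete control.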

Italian ryegrass [9] = test: Test A preemergence; format: in vivo, Lolium multiflorum; details: for Plant response rating, Ryegrass, Italian: 0 to 100 scale where 0 is no effect and 100 is complete control
How it was run: as §1

sedge, umbrella = test: Test B flooded paddy test; format: in vivo, Cyperus difformis; details: Flood, 250 g ai/ha; 0 to 100 scale where 0 is no effect and 100 is complete control
How it was run: as §2

barnyardgrass [10] = test: Test B flooded paddy test; format: in vivo, Echinochloa crus-galli; details: Flood, 250 g ai/ha; 0 to 100 scale where 0 is no effect and 100 is complete control
How it was run: as §2

Heteranthera limosa = test: Test B flooded paddy test; format: in vivo; details: Flood, 250 g ai/ha; 0 to 100 scale where 0 is no effect and 100 is complete control
How it was run: as §2

kochia [11] = test: Test A postemergence; format: in vivo, Kochia scoparia; details: for Plant response rating, Kochia: 0 to 100 scale, 0 no effect, 100 complete control
How it was run: as §1

galium = test: Test A postemergence; format: in vivo, Galium aparine; details: for Plant response rating, Galium: 0 to 100 scale, 0 no effect, 100 complete control
How it was run: as §1

pigweed [12] = test: Test A preemergence; format: in vivo, Amaranthus retroflexus; details: for Plant response rating, Pigweed: 0 to 100 scale where 0 is no effect and 100 is complete control
How it was run: as §1

ragweed [13] = test: Test A preemergence; format: in vivo, Ambrosia elatior; details: for Plant response rating, Ragweed: 0 to 100 scale where 0 is no effect and 100 is complete control
How it was run: as §1

[14] = 31 g ai/ha, visual, approximately 10 days
[15] = 125 g ai/ha, 0 to 100 scale where 0 is no effect and 100 is complete control

FC(F)(F)Sc1cnn(-c2ccccc2Oc2ncc(Br)cn2)c1 [Compound 246]
70: Foxtail, Giant plant response rating (0 to 100 scale) (giant foxtail [3]; 125 g ai/ha) | Plant response rating, Kochia (kochia [11]; 125 g ai/ha) | Plant response rating, Galium (galium; 125 g ai/ha)
20: Plant response rating, Pigweed (pigweed [7]; 31 g ai/ha) | Plant response rating, Corn (corn; 125 g ai/ha) | Plant response rating, Kochia (kochia [11]; 31 g ai/ha) | Plant response rating, Galium (galium; 31 g ai/ha) | Pigweed plant response rating (0 to 100 scale) (pigweed [12]; 125 g ai/ha)
0: Plant response rating, Barnyardgrass (barnyardgrass [1]; 31 g ai/ha) | Plant response rating, Barnyardgrass (barnyardgrass [1]; 125 g ai/ha) | Plant response rating, Kochia (kochia [2]; [14]) | Kochia plant response rating (0 to 100 scale) (kochia [2]; 125 g ai/ha) | Plant response rating, Foxtail, Giant (giant foxtail [3]; [14]) | Plant response rating, Barnyardgrass (barnyardgrass [4]; [14]) | Plant response rating, Foxtail, Giant (giant foxtail [5]; 31 g ai/ha) | Plant response rating, Foxtail, Giant (giant foxtail [5]; 125 g ai/ha) | Plant response rating, Ragweed (ragweed [6]; 31 g ai/ha) | Plant response rating, Ragweed (ragweed [6]; 125 g ai/ha) | Plant response rating, Corn (corn; 31 g ai/ha) | Plant response rating, Ryegrass, Italian (Italian ryegrass [8]; 31 g ai/ha) | Plant response rating, Ryegrass, Italian (Italian ryegrass [8]; 125 g ai/ha) | Plant response rating, Wheat (wheat; 31 g ai/ha) | Plant response rating, Wheat (wheat; 125 g ai/ha) | Plant response rating, Blackgrass (blackgrass; 31 g ai/ha) | Plant response rating, Blackgrass (blackgrass; 125 g ai/ha) | Plant response rating, Rice (rice) | Plant response rating, Ryegrass, Italian (Italian ryegrass [9]; [14]) | Ryegrass, Italian plant response rating (0 to 100 scale) (Italian ryegrass [9]; 125 g ai/ha) | Plant response rating, Sedge, Umbrella (sedge, umbrella) | Plant response rating, Barnyardgrass (barnyardgrass [10]) | Plant response rating, Ducksalad (Heteranthera limosa) | Plant response rating, Pigweed (pigweed [12]; [14]) | Plant response rating, Ragweed (ragweed [13]; [14]) | Ragweed plant response rating (0 to 100 scale) (ragweed [13]; 125 g ai/ha)
40: Plant response rating, Pigweed (pigweed [7]; 125 g ai/ha)
30: Barnyardgrass plant response rating (0 to 100 scale, 0 is no effect, 100 is complete control) (barnyardgrass [4]; 125 g ai/ha)

CCCOc1cnn(-c2c(F)cccc2Oc2ncc(Cl)cn2)c1 [Compound 127]
30: Pigweed plant response rating (pigweed [7]; [15]) | Kochia plant response rating (kochia [11]; [15])
60: Plant response rating, Foxtail, Giant (giant foxtail [3]; 125 g ai/ha) | Plant response rating, Ducksalad (Heteranthera limosa)
0: Plant response rating, Barnyardgrass (barnyardgrass [1]; 31 g ai/ha) | Kochia plant response rating (0 to 100 scale) (kochia [2]; 31 g ai/ha) | Plant response rating, Kochia (kochia [2]; 125 g ai/ha) | Barnyardgrass plant response rating (0 to 100 scale) (barnyardgrass [4]; 31 g ai/ha) | Plant response rating, Foxtail, Giant (giant foxtail [5]; 31 g ai/ha) | Plant response rating, Ragweed (ragweed [6]; 31 g ai/ha) | Plant response rating, Corn (corn; 31 g ai/ha) | Plant response rating, Ryegrass, Italian (Italian ryegrass [8]; 31 g ai/ha) | Ryegrass, Italian plant response rating (Italian ryegrass [8]; [15]) | Plant response rating, Wheat (wheat; 31 g ai/ha) | Wheat plant response rating (wheat; [15]) | Plant response rating, Blackgrass (blackgrass; 31 g ai/ha) | Plant response rating, Rice (rice) | Ryegrass, Italian plant response rating (0 to 100 scale) (Italian ryegrass [9]; 31 g ai/ha) | Plant response rating, Ryegrass, Italian (Italian ryegrass [9]; 125 g ai/ha) | Plant response rating, Sedge, Umbrella (sedge, umbrella) | Plant response rating, Barnyardgrass (barnyardgrass [10]) | Plant response rating, Kochia (kochia [11]; 31 g ai/ha) | Pigweed plant response rating (0 to 100 scale) (pigweed [12]; 31 g ai/ha) | Ragweed plant response rating (0 to 100 scale) (ragweed [13]; 31 g ai/ha) | Plant response rating, Ragweed (ragweed [13]; 125 g ai/ha)
10: Barnyardgrass plant response rating (barnyardgrass [1]; [15]) | Foxtail, Giant plant response rating (0 to 100 scale) (giant foxtail [3]; 31 g ai/ha) | Ragweed plant response rating (ragweed [6]; [15]) | Corn plant response rating (corn; [15]) | Blackgrass plant response rating (blackgrass; [15]) | Plant response rating, Galium (galium; 31 g ai/ha) | Plant response rating, Pigweed (pigweed [12]; 125 g ai/ha)
20: Foxtail, Giant plant response rating (giant foxtail [5]; [15]) | Plant response rating, Pigweed (pigweed [7]; 31 g ai/ha) | Galium plant response rating (galium; [15])
40: Plant response rating, Barnyardgrass (barnyardgrass [4]; 125 g ai/ha)
